From US20040137436A1, “Method for measuring drug resistance” (priority 2000, published 2004)
Read-outs that look alike come from different tables or passages of the source.

Tested on: HIV-1
Format: cell-based
Conditions: for Geometric Mean Phenotype: fold change in IC50 vs wild type; for Average Phenotype (log): log fold resistance
[1] = RT codon 41 ANY, 184 ANY, 215 ANY
[2] = RT codon 41 WT, 184 V/I, 215 F/Y
[3] = RT codon 41 WT, 184 V/I, 215 WT
[4] = RT codon 41 WT, 184 WT, 215 F/Y

Structure (SMILES): Cc1cn([C@H]2C[C@H](N=[N+]=[N-])[C@@H](CO)O2)c(=O)[nH]c1=O [AZT, zidovudine]
- effect of inclusion of the 184V mutation on magnitude of AZT resistance (184V together with AZT resistance mutations, each cluster (FIG. 7)): substantial reduction
- Geometric Mean Phenotype [1]: 3.9 fold
- Geometric Mean Phenotype (RT codon 41 L, 184 WT, 215 F/Y): 27.7 fold
- Geometric Mean Phenotype (RT codon 41 L, 184 WT, 215 WT): 1.7 fold
- Geometric Mean Phenotype [2]: 6.2 fold
- Geometric Mean Phenotype [3]: 1.3 fold
- Geometric Mean Phenotype [4]: 13.4 fold
- Geometric Mean Phenotype (RT codon 41 WT, 184 WT, 215 WT): 1.3 fold
- mean fold resistance, increase (genetic clusters with multiple mutations conferring AZT resistance (FIG. 7)): ~100 fold
- Average Phenotype (log) [1]: 0.59
- Average Phenotype (log) (RT codon 41 L, 184 WT, 215 F/Y): 1.44
- Average Phenotype (log) (RT codon 41 L, 184 WT, 215 WT): 0.24
- Average Phenotype (log) [2]: 0.79
- Average Phenotype (log) [3]: 0.10
- Average Phenotype (log) [4]: 1.13
- Average Phenotype (log) (RT codon 41 WT, 184 WT, 215 WT): 0.12
- susceptibility profile of genetic cluster (virus harbouring the 184V mutation (FIG. 7)): slightly reduced level of susceptibility
